Source: article PMC12657457 (Frontiers in Pharmacology, 2025)
Counter-ions that a name gives are not always drawn. Like-named read-outs stand apart in the source and are kept apart here.

Tests used:
human plasma BChE = molecular target: T1, human plasma BChE (Homo sapiens, UniProt P06276); experiment: Ex vivo enzyme-inhibition kinetic analysis (Ki and inhibition mode); type: biochemical; conditions: for Inhibition mode (BChE): best-fit nonlinear regression model
T1 construct: pooled human plasma (source of BChE) were used as enzyme sources; from tissue; host or cells: pooled human plasma from patients with mild-to-moderate AD
T1 sequence (P06276 29-602): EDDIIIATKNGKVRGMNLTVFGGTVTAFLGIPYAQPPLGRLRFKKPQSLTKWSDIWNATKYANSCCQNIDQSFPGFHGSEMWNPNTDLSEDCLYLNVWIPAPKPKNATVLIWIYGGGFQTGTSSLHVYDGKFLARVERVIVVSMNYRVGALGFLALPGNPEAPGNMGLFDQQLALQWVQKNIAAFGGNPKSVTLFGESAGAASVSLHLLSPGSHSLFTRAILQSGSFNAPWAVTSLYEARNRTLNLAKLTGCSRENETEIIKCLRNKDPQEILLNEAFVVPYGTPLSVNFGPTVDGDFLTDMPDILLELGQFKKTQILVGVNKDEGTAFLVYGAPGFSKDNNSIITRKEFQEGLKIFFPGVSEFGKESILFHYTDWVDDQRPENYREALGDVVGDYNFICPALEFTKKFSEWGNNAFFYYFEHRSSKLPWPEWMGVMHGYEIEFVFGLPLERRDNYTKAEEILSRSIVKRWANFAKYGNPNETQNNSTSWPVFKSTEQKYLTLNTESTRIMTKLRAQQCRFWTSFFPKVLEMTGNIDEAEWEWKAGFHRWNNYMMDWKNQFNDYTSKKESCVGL
Description: (§1) The stock solution was prepared at 10 mM in DMSO. Acetylthiocholine iodide (ATC), butyrylthiocholine iodide (BTC), and 5,5′-dithiobis-(2-nitrobenzoic acid) (DTNB) were also purchased from Sigma-Aldrich. Recombinant human AChE (Cat. No. C1682) and pooled human plasma (source of BChE) were used as enzyme sources. The pooled human plasma was prepared as described before ([Vijayaraghavan et al., 2013]). Briefly, pooled plasma samples were prepared by combining equal volumes from a large cohort of patients clinically diagnosed with mild-to-moderate AD. All samples were collected prior to the initiation of any cholinesterase inhibitor treatment. An equal volume of glycerol was then added to the pooled plasma, thoroughly mixed, and aliquoted into small tubes. These aliquots were stored at -20 °C until used in the assay. Each aliquot was used only once to avoid any interference due to freeze-thaw cycles. All other reagents were of analytical grade.
(§2) Substrate concentrations were varied in a two-fold serial dilution: BTC (5 mM–[…]) for BChE and ATC (0.5 mM–[…]) for AChE. Each well received 20 µL of compound or vehicle, 20 µL of substrate, 20 µL of enzyme/DTNB master mix (for all of them 4x working solution in order to reach final concentration), and 20 µL of buffer. Absorbance at 412 nm was measured every 2 min for 15–20 min.
To further elucidate the mechanism of inhibition, inhibition constant (Kᵢ) values and inhibition modes were determined using nonlinear regression models in GraphPad Prism 10. Multiple models were tested, including competitive, noncompetitive, uncompetitive, and mixed inhibition. The optimal model for each compound was selected based on residual analysis and the Akaike Information Criterion (AIC), ensuring robust statistical support. In cases of mixed inhibition, the α parameter was used to characterize the relative affinity of the inhibitor for the enzyme-substrate complex versus the free enzyme.

Recombinant human AChE = molecular target: T2, Recombinant human AChE (Homo sapiens, UniProt P22303); experiment: Single-concentration screening, modified Ellman's assay (AChE); type: biochemical; conditions: 0.5 mM ATC
T2 construct: purchased Sigma-Aldrich C1682
T2 sequence (P22303 32-614): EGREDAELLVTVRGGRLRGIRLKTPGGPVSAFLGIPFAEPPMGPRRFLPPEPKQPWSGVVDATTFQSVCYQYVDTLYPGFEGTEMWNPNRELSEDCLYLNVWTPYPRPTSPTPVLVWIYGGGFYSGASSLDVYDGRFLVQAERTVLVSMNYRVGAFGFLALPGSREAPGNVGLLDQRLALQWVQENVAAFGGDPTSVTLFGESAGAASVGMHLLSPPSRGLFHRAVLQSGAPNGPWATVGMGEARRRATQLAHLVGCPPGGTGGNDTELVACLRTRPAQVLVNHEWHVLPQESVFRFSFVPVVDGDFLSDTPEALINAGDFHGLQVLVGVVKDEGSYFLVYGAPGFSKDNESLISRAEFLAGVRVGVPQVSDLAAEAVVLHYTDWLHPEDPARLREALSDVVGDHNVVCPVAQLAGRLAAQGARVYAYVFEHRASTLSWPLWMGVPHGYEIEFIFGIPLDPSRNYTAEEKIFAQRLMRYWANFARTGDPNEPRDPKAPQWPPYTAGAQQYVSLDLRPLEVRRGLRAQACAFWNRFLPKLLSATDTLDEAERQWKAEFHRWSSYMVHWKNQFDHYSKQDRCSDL
Description: as §1, with “Propranolol hydrochloride and diltiazem hydrochloride were obtained from Sigma-Aldrich (St. Louis, MO, United States). The stock” for “The stock”
Cholinesterase activity was measured using a modified Ellman’s colorimetric method adapted for high-throughput screening ([Kumar et al., 2017]; [2020]; [Darreh-Shori et al., 2024]). Assays were conducted in 384-well microplates. Briefly, 20 µL of buffer was initially added to all wells. Subsequently, 20 µL of enzyme solution was added to designated wells, while 20 µL of buffer without enzyme was added to the negative control wells. […] The plate reader (Tecan Infinite M1000) was configured for a 384-well transparent plate in absorbance mode at 412 nm, with kinetic reading taken over 10 min at 1-min intervals. Following incubation, 20 µL of Master Mix Buffer (MMB) cocktail was added to each well using a multichannel pipette, and the plate reading was initiated inmediately. […] Upon completion of the reading, the data file was saved, enzyme activity rates were extracted, and the data were analyzed. Enzyme activity was calculated from the slope of the linear portion of the absorbance-time curve.

plasma-derived BChE = molecular target: T3, plasma-derived BChE (Homo sapiens, UniProt P06276); experiment: Single-concentration screening, modified Ellman's assay (BChE); type: biochemical; conditions: read-out: BChE inhibition relative to vehicle control
T3 construct: pooled human plasma (source of BChE) were used as enzyme sources; from tissue; host or cells: pooled human plasma from patients with mild-to-moderate AD
T3 sequence (P06276 29-602): as the sequence (P06276 29-602) above
Description: Propranolol hydrochloride and diltiazem hydrochloride were obtained from Sigma-Aldrich (St. Louis, MO, United States). The stock solution was prepared at 10 mM in DMSO. Acetylthiocholine iodide (ATC), butyrylthiocholine iodide (BTC), and 5,5′-dithiobis-(2-nitrobenzoic acid) (DTNB) were also purchased from Sigma-Aldrich. Recombinant human AChE (Cat. No. C1682) and pooled human plasma (source of BChE) were used as enzyme sources. The pooled human plasma was prepared as described before ([Vijayaraghavan et al., 2013]). Briefly, pooled plasma samples were prepared by combining equal volumes from a large cohort of patients clinically diagnosed with mild-to-moderate AD. […]
Cholinesterase activity was measured using a modified Ellman’s colorimetric method adapted for high-throughput screening ([Kumar et al., 2017]; [2020]; [Darreh-Shori et al., 2024]). […] The plate reader (Tecan Infinite M1000) was configured for a 384-well transparent plate in absorbance mode at 412 nm, with kinetic reading taken over 10 min at 1-min intervals. Following incubation, 20 µL of Master Mix Buffer (MMB) cocktail was added to each well using a multichannel pipette, and the plate reading was initiated inmediately. […] Upon completion of the reading, the data file was saved, enzyme activity rates were extracted, and the data were analyzed. […]

human BChE = molecular target: T4, human BChE (Homo sapiens, UniProt P06276); experiment: IC50 determination against BChE in pooled human plasma (Ellman); type: biochemical
T4 construct: pooled human plasma (source of BChE) were used as enzyme sources; from tissue; host or cells: pooled human plasma from patients with mild-to-moderate AD
T4 sequence (P06276 29-602): as above
Description: as §1, §2

[1] = physiologically relevant concentration; ref Cruickshank and Neil-Dwyer, 1985; cited from earlier work
BChE = conditions: at approximately 0.59 µM in plasma and 10 µM in brain tissue; ref Cruickshank and Neil-Dwyer, 1985; cited from earlier work

COc1ccc([C@@H]2Sc3ccccc3N(CCN(C)C)C(=O)[C@@H]2OC(C)=O)cc1 [Diltiazem, diltiazem hydrochloride]
Ki (human plasma BChE): 2300 nM
Inhibition mode (BChE) (human plasma BChE): competitive inhibitor
Inhibition mode (BChE) (human plasma BChE; listed as diltiazem): competitive inhibition
inhibition at 100 µM (Recombinant human AChE; single concentration 100 µM, read-out: AChE inhibition relative to vehicle control): 2%
inhibition at 100 µM (plasma-derived BChE; single concentration 100 µM, 5 mM BTC): > 80%
IC50 (human BChE): 153 µM

CCN(CC)C(C)CN1c2ccccc2Sc2ccccc21 (stereo not shown) [Ethopropazine]
Inhibition mode (BChE) (human plasma BChE): Mixed-competitive
Inhibition mode (BChE) (human plasma BChE; listed as ethopropazine): mixed competitor
AChE inhibition relative to vehicle control (Recombinant human AChE; single concentration 100 µM): no inhibition
IC50 (human BChE): 2.81 µM

CNC(=O)Oc1ccc2c(c1)[C@]1(C)CCN(C)[C@@H]1N2C [Physostigmine]
Inhibition mode (BChE) (human plasma BChE): Competitive
Inhibition mode (BChE) (human plasma BChE; listed as physostigmine): competitive inhibition

CC(C)NCC(O)COc1cccc2ccccc12 (stereo not shown) [Propranolol, Propranolol hydrochloride]
Ki (human plasma BChE): 190 nM
Inhibition mode (BChE) (human plasma BChE): competitive inhibitor
Inhibition mode (BChE) (human plasma BChE; listed as propranolol): competitive inhibition
Concentration that reduced BChE activity to half of its baseline level (human plasma BChE; substrate concentration range of 0.08 mM–0.62 mM): 0.19 µM
inhibition at 100 µM (Recombinant human AChE; read-out: AChE inhibition relative to vehicle control, single concentration 100 µM): 18%
inhibition at 100 µM (plasma-derived BChE): > 80%
Concentration in plasma [1]: approximately 0.59 µM
Concentration in the brain tissue [1]: ~10 µM
Reduction of BChE activity (BChE): approximately 50%
IC50 (human BChE; 5 mM BTC as substrate, plasma BChE, read-out: IC50 (BChE)): 55.6 µM
